According to patent US20180042874A1, “METHOD FOR TREATING OSTEOPOROSIS” (China Medical University, priority 2016, published 2018):

Key:
NFATc2 = assay: Western blot of MAPK downstream protein NFATc2; format: cell-based, mouse; conditions: 10 μg/ml co-treated with 100 ng/ml RANKL, 48 hours
Experimental: (§1) The effect of the compound of formula I on the protein expression of osteoclast MAPKs pathways induced by receptor activator of nuclear factor κB ligand was studied, experiments were performed by using the Western blot method; RAW 264.7 cells were rinsed in ice-cold PBS, cell lysis buffer was added, the components of the buffer solution included: 10 mM 4-(2-hydroxyethyl)-1-piperazineethanesulfonic acid (HEPES), 1.5 mM MgCl2, 0.5 mM dithiothreitol (DTT), 0.5 μg/ml leupeptin and 6.4% Nonidet P-40, reacted on ice for 15 minutes. The cells were scraped off with a spatula, collected into a 1.5 ml centrifuge tube, the cells were thoroughly broken by using a shaker; centrifuged at 12,000 rpm, 4° C. for 10 minutes; supernatant was added into a new 1.5 ml centrifuge tube; boiled with IX sodiumdodecyl sulfate (SDS) sample buffer, followed by electrophoresis using 10 to 12% SDS-PAGE. […] The transfer membrane was rinsed again and the membrane loaded with chemical luminescence reagent ECL was allowed to react with a photosensitive sheet in a darkroom for a suitable period of time, the photosensitive sheet then reacted with the developer. After the photosensitive sheet was exposed to light a band-shaped antibody-binding proteins was observed, quantified by the density of the bands. […]

NF-κB p65 = assay: Western blot of NF-κB p65; format: cell-based, mouse; conditions: 10 μg/ml co-treated with 100 ng/ml RANKL, 48 hours
Experimental: as §1

ERK = assay: Western blot of MAPK pathway, phosphorylated ERK; format: cell-based, mouse; conditions: 10 μg/ml co-treated with 100 ng/ml RANKL, 0-60 minutes
Experimental: as §1

JNK = assay: Western blot of MAPK pathway, phosphorylated JNK; format: cell-based, mouse; conditions: 10 μg/ml co-treated with 100 ng/ml RANKL, 0-60 minutes
Experimental: as §1

p38 = assay: Western blot of MAPK pathway, phosphorylated p38; format: cell-based, mouse; conditions: 10 μg/ml co-treated with 100 ng/ml RANKL, 0-60 minutes
Experimental: as §1

ovariectomized rats = assay: Bone density in ovariectomized osteoporosis rat model; format: in vivo, Sprague-Dawley (SD) female rats
Experimental: Inducing osteoporosis animal models and experimental methods: • 1. 6-month old Sprague-Dawley (SD) female rats were purchased; • 2. These rats were divided into 7 groups, of which Group 1 was given pseudo-surgery, Group 2-7 underwent bilateral ovariectomies; • 3. On the 6th day after surgery, 1 mL/kg of vehicle alone was given orally to Group 1, Group 2 daily, Zoledronic Acid and Prolia were administered weekly by injections to Group 3, Group 4, respectively; 1, 3, 10 mg/kg of the compound of formula I was given orally every 3 days to Groups 5-7, respectively; • 4. Body weight and bone density were measured weekly, blood was drawn until the 118th day; • 5. Rats were then sacrificed to obtain kidneys, livers and rat tibia; • 6. Data were consolidated and processed.

[1] = system: osteolytic activity of osteoclast cells induced by receptor activator of nuclear factor κB ligand; assay: Osteolytic activity of osteoclasts on corning osteo assay surface plate; format: cell-based, mouse; conditions: 10 μg/ml co-treated with 100 ng/ml RANKL, 12 days
From the text: Effect of the compound of formula I on receptor activator of nuclear factor κB ligand-induced osteocytic activity of the osteoclast cells Osteoclast is a multinuclear cell, which differentiates because of the stimulation of macrophage colony stimulating factor and receptor activator of nuclear factor κB ligand, after differentiation the folds on the edge of the osteoclast form a resorption groove on the cell membrane and the bone surface is […]. In this space, the […] secretes some enzymes and acids. These acids activate the enzymes to initiate osteolysis of bone mineral matrix. […]
In order to confirm the effect of the compound of formula I on the bone resorption capability of differentiated osteoclasts, RAW 264.7 cells were cultured in a 24-well plate (osteo assay plate, 24 well; corning incorporated) containing artificial bone material, the cell number of each well was 2×10^3 cell/ml. […] The number of grooves per each well was counted under a microscope 40× and further photographed for observation.

hepatitis B virus (HBV) = conditions: human hepatocellular carcinoma cells; cited from earlier work

SMILES: CNC(=O)N[C@]1(C)CCC[C@@]2(C)C3CC[C@@]4(C)C[C@]3(CCC21)CC4=O (single isomer, unassigned; ent-16) [compound of formula I, ent-16-oxobeyeran-19-N-methylureido]
- NFATc2 protein expression (NFATc2): significantly reduced
- NF-κB p65 protein expression (NF-κB p65): protein expression was reduced
- expression of phosphorylated ERK (ERK): decreased
- expression of phosphorylated JNK (JNK): decreased
- expression of phosphorylated p38 (p38): decreased
- effect on reduced tibial bone density caused by ovarian removal (ovariectomized rats; ovariectomized rats, 1, 3, 10 mg/kg PO once every 3 days, 19 weeks after ovarian removal): improve the reduced tibial bone density
- increase of tibial bone density (ovariectomized rats; ovariectomized rats, PO once every 3 days, as compared to the experimental group): 10%
- eroded area of the artificial bone material [1]: substantially reduced
- osteolytic activity of osteoclast cells [1]: inhibited
- secretion of hepatitis B virus antigen (HBeAg) (hepatitis B virus (HBV)): effectively suppress
- secretion of hepatitis B virus surface antigen (HBsAg) (hepatitis B virus (HBV)): effectively suppress
